In patent US20240308985A1 (Psy Therapeutics, Inc., priority 2021, published 2024):
Where two headings read alike, the source gives them in different places.

Molecular target: Monoacylglycerol Lipase (MAGL) (Homo sapiens (Human), UniProt Q99685)
Experiment: MAGL inhibition potency (IC50) assay with 4NPA substrate
Format: biochemical
Source text: The potency of certain compounds for inhibiting MAGL were obtained using the following assays. The monoacylglycerol lipase inhibitor screening assay kit from Cayman Chemical was used to measure the MAGL potency for the compounds in Table 6 and Table 7. Cayman's Monoacylglycerol Lipase Inhibitor Screening Assay provides a method for screening human MAGL inhibitors. MAGL hydrolyzes 4-nitrophenylacetate resulting in a yellow product, 4-nitrophenol, with an absorbance of 405-412 nm. MAGL Inhibition was measured by the following assay. Monoacylglycerol Lipase (MAGL) inhibition was measured using recombinant MAGL enzyme (aa 2-303 RBC, internal preparation) and the substrate 4-Nitrophenyl acetate (4NPA) (Sigma-Aldrich, N8130). Hydrolysis of the substrate in the presence of the enzyme was measured by absorbance at 405 nm. 10 μL of assay buffer (10 mM Tris pH 7.5, 1 mM EDTA, 0.9% DMSO) was added to a black 384-well non-binding plate with clear bottom (Greiner, 781906) for each reaction. […] DMSO control wells were included for reference. A 10.8 nM (1.8×) MAGL mix in assay buffer was prepared, with 25 μL added to each reaction well, for a final assay concentration of 6 nM. No enzyme wells received 25 μL of buffer. Plate was incubated at room temperature for 30 minutes. 35 mM solution of 4NPA in methanol was prepared daily. A 4.5×4NPA substrate solution was prepared in assay buffer and 10 μL was added to each reaction well, for a final assay concentration of 0.25 mM. Plate was spun for 1 minute at 1000 rpm before measuring absorbance using a CLARIOstar plate reader (BMG Labtech). A kinetic reading at 405 nm was done every minute for 30 minutes. Data was analyzed using the linear slope of the reaction progress curve and the average of the no-enzyme wells (background) was subtracted from the data. The background-subtracted slope data was converted to % activity using the average of wells with enzyme and DMSO vehicle. IC50s were calculated using GraphPad software (Sigmoidal dose response, variable slope equation). […] Table 8 provides potency measurements of MAGL inhibition measured using the Potency Assay of Example 22 above, with the following modifications described in Table C. [table]

[1] = Method 14: Reaction Biology MAGL enzyme, 6 nM, read-out: MAGL Potency (Detection Method)
[2] = Method 2: Cayman Chemical MAGL enzyme, 10 nM, read-out: Potency (MAGL inhibition)
[3] = Method 12: Reaction Biology MAGL enzyme, 15 nM, read-out: MAGL Potency (Detection Method)
[4] = Method 11: Reaction Biology MAGL enzyme, 25 nM (name: Conc 20), read-out: MAGL Potency (Detection Method)
[5] = Method 6: Reaction Biology MAGL enzyme, 6 nM, read-out: MAGL Potency (Detection Method)
[6] = Method 6: Reaction Biology MAGL enzyme, 6 nM, read-out: Potency (MAGL inhibition)

Monoacylglycerol Lipase (MAGL), sequence (Q99685 2-303): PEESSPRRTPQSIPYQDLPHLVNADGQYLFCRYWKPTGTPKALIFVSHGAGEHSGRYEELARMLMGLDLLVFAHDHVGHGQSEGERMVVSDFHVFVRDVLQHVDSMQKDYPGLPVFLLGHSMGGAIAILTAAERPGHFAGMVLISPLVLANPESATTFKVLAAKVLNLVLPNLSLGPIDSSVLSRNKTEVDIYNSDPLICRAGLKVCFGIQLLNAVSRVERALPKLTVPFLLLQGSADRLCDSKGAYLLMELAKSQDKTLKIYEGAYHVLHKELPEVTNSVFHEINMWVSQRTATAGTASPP

O=C(c1cc(O)ccc1F)N1CC2(CC(n3ncnc3-c3ccccc3Cl)C2)C1 [Compound 376, {6-[5-(o-chlorophenyl)-1H-1,2,4-triazol-1-yl]-2-aza-2-spiro[3.3]beptyl}(2-fluoro-5-hydroxyphenyl)methanone]
IC50 [1]: 50 to 150 nM

Cc1cc(C2CC3(C2)CN(C(=O)c2cccn2C)C3)n(-c2ccccc2C)n1 [Compound 181]
IC50 [2]: > 10000 nM

O=C(c1cc(O)ccc1F)N1CC2(CC(n3cc(C4CC4)c(-c4ccccc4C(F)(F)F)n3)C2)C1 [Compound 488, (6-{4-cyclopropyl-3-[o-(trifluoromethyl)phenyl]-1-pyrazolyl}-2-aza-2-spiro[3.3]heptyl)(2-fluoro-5-hydroxyphenyl)methanone]
IC50 [3]: < 50 nM

Cc1cc(C2CC3(C2)CN(C(=O)c2cc[nH]c2)C3)n(-c2ccccc2C)n1 [Compound 184]
IC50 [2]: > 10000 nM

CCOc1cc(F)ccc1C(=O)N1CC2(CC(n3nc(C)cc3-c3cc(F)ccc3C)C2)C1 [Compound 462, (2-ethoxy-4-fluorophenyl){6-[5-(5-fluoro-2-tolyl)-3-methyl-1-pyrazolyl]-2-aza-2-spiro[3.3]heptyl}metbanone]
IC50 [4]: 1000 to 5100 nM

O=C(c1c(F)cccc1OC1CC1)N1CC2(CC(n3cc(C(F)(F)F)c(-c4ccccc4F)n3)C2)C1 [Compound 522, (2-cyclopropoxy-6-fluorophenyl){6-[3-(o-fluorophenyl)-4-(trifluoromethyl)-1-pyrazolyl]-2-aza-2-spiro[3.3]heptyl}methanone]
IC50 [3]: 1000 to 5100 nM

COc1cc(F)ccc1CN1CC2(CC(c3cc(C)nn3-c3ccccc3C)C2)C1 [Compound 149]
IC50 [2]: > 10000 nM

Cc1cc(C2CC3(C2)CN(C(=O)c2cc(O)ccc2C#N)C3)n(-c2ccccc2C)n1 [Compound 128, 4-hydroxy-2-({6-[3-methyl-1-(o-tolyl)-5-pyrazolyl]-2-aza-2-spiro[3.3]heptyl}carbonyl)benzonitrile]
IC50 (Methods 1, 2, read-out: MAGL Potency (Detection Method)): < 50 nM

Cc1ccccc1-c1nn(C2CC3(C2)CN(C(=O)c2ccc(F)cc2OC2CC2)C3)cc1C [Compound 447, (2-cyclopropoxy-4-fluorophenyl){6-[4-methyl-3-(o-tolyl)-1-pyrazolyl]-2-aza-2-spiro[3.3]heptyl}methanone]
IC50 [5]: 150 to 500 nM

Cc1cc(C2CC3(C2)CN(C(=O)c2ccc(F)cc2OC(C)C)C3)n(-c2ccccc2C)n1 [Compound 177, (4-fluoro-2-isopropoxyphenyl)(6-(3-methyl-1-(o-tolyl)-1H-pyrazol-5-yl)-2-azaspiro[3.3]heptan-2-yl)methanone]
IC50 (Method 2: Cayman Chemical MAGL enzyme, 10 nM, read-out: MAGL Potency (Detection Method)): 50 to 150 nM

Cc1cnn(C2CC3(C2)CN(C(=O)c2cc(O)ccc2F)C3)c1-c1ccccc1Cl [Compound 404]
IC50 [6]: > 10000 nM

Cc1cn(C2CC3(C2)CN(C(=O)c2cc(O)ccc2F)C3)nc1-c1ccccc1F [Compound 417, (2-fluoro-5-hydroxyphenyl){6-[3-(o-fluorophenyl)-4-methyl-1-pyrazolyl]-2-aza-2-spiro[3.3]heptyl}methanone]
IC50 [5]: < 50 nM

Cc1ccccc1-c1ccnn1C1CC2(C1)CN(C(=O)c1cc(O)ccc1F)C2 [Compound 405]
IC50 [6]: > 10000 nM

Cc1ccc(F)cc1-c1c(C)cnn1C1CC2(C1)CN(C(=O)c1ccc(F)cc1OC1CC1)C2 [Compound 422, (2-cyclopropoxy-4-fluorophenyl){6-[5-(5-fluoro-2-tolyl)-4-methyl-1-pyrazolyl]-2-aza-2-spiro[3.3]beptyl}methanone]
IC50 [5]: 1000 to 5100 nM

Cc1ccccc1-c1ccn(C2CC3(C2)CN(C(=O)c2cc(O)ccc2F)C3)n1 [Compound 441]
IC50 [6]: > 10000 nM

Cc1ccc(F)cc1-c1cc(C)n(C2CC3(C2)CN(C(=O)c2ccc(F)cc2OCC(F)(F)F)C3)n1 [Compound 467, {6-[3-(5-fluoro-2-tolyl)-5-methyl-1-pyrazolyl]-2-aza-2-spiro[3.3]heptyl} [4-fluoro-2-(2,2,2-trifluoroethoxy)phenyl]methanone]
IC50 [4]: 150 to 500 nM

Cc1ccccc1-c1nn(C2CC3(C2)CN(C(=O)c2cc(O)ccc2F)C3)cc1C [Compound 440, (2-fluoro-5-hydroxyphenyl){6-[4-methyl-3-(o-tolyl)-1-pyrazolyl]-2-aza-2-spiro[3.3]heptyl}methanone]
IC50 [1]: < 50 nM
